Data on 24 compounds can be found in patent US8653071B2, “α4β2 neuronal nicotinic acetylcholine receptor ligands” (Suven Life Sciences Limited, priority 2009, dated 2014).

In data set [1] the target is Nicotinic Acetylcholine α4β2 Receptor (UniProt P09483+P12390). As to the kind of experiment: Binding assay for human or rat nicotinic acetylcholine α4β2 receptor ([3H]Cytisine displacement). The conditions noted are these: [3H]Cytisine 2.5 nM; rat brain frontal cortex or recombinant human receptor in CHO cells (not specified which); read-out: Ki. The procedure:
Binding Assay for Human or Rat Nicotinic Acetylcholine α4β2 Receptor
• Receptor source: Rat brain frontal cortex or recombinant human cDNA expressed in CHO cells • Radioligand: [^3H]Cytisine 15-40 Ci/mmole • Final ligand concentration—[2.5 nM] • Non-specific determinant: Epibatidine—[0.1 μM] • Reference compound: Epibatidine • Positive control: Epibatidine Incubation Conditions:
Increasing concentrations of test compounds or standard were incubated with membrane receptors and radioligand in 120 mM NaCl, 2.5 mM KCl, 1 mM CaCl2, 1 mM MgCl2 and 50 mM TRIS-HCl (pH 7.4) for 60 minutes at room temperature. The reaction was terminated by rapid vacuum filtration onto the glass fiber filters. Radioactivity trapped onto the filters was determined and compared to the control values in order to ascertain any interactions of the test compound(s) with either cloned human or rat receptor binding site.
Literature Reference: Bunnelle W. H., Daanen J. F., Ryther K. B., Schrimpf M. R., Dart M. J., Gelain A., Meyer M. D., Frost J. M., Anderson D. J., Buckley M., Curzon P., Cao Y-J., Puttfarcken P., Searle X., Ji J., Putman C. B., Surowy C., Toma L. and Barlocco D. Structure-Activity Studies and Analgesic Efficacy of N-(3-Pyridinyl)-Bridged Bicyclic Diamines, Exceptionally Potent Agonists at Nicotinic Acetylcholine Receptors. J. Med. Chem. 2007, 50, […].

The test system of data set [2] is Male Wister rats. The experiment in a line: Object recognition task model. Type of data set: in vivo, rat. The conditions noted are these: p.o.; for Exploration time mean ± S.E.M, Familiar object / Exploration time mean ± S.E.M, Novel object: choice trial. The procedure:
Object Recognition Task Model
The cognition-enhancing properties of compounds of this invention were estimated using a model of animal cognition: the object recognition task model.
Male Wister rats (230-280 grams) obtained from N. I. N. (National Institute of Nutrition, Hyderabad, India) was used as experimental animals. Four animals were housed in each cage. […] Also the rats were habituated to individual arenas for 1 hour in the absence of any objects.
One group of 12 rats received vehicle (1 mL/Kg) orally and another set of animals received compound of the formula (I) either orally or i.p., before one hour of the familiar (T1) and choice trial (T2).
The experiment was carried out in a 50×50×50 cm open field made up of acrylic. In the familiarization phase, (T1), the rats were placed individually in the open field for 3 minutes, in which two identical objects (plastic bottles, 12.5 cm height×5.5 cm diameter) covered in yellow masking tape alone (a1 and a2) were positioned in two adjacent corners, 10 cm. from the walls. After 24 hours of the (T1) trial for long-term memory test, the same rats were placed in the same arena as they were placed in T1 trial. Choice phase (T2) rats were allowed to explore the open field for 3 minutes in presence of one familiar object (a3) and one novel object (b) (Amber color glass bottle, 12 cm high and 5 cm in diameter). Familiar objects presented similar textures, colors and sizes. During the T1 and T2 trial, explorations of each object (defined as sniffing, licking, chewing or having moving vibrissae whilst directing the nose towards the object at a distance of less than 1 cm) were recorded separately by stopwatch. Sitting on an object was not regarded as exploratory activity, however, it was rarely observed.
T1 is the total time spent exploring the familiar objects (a1+a2).
T2 is the total time spent exploring the familiar object and novel object (a3+b).
The object recognition test was performed as described by Ennaceur, A., Delacour, J., 1988, A new one-trial test for neurobiological studies of memory in rats—Behavioural data, Behav. Brain Res., 31, 47-59.

A short description of data set [3]: Rodent pharmacokinetic study. Type of data set: in vivo. To be noted: Wistar, plasma, Wister rat/Male; for bioavailability: 5 mg/kg Per-Oral vs 5 mg/kg Intravenous; for AUC(0-t) / Cmax / Tmax / half-life: 5 mg/kg. The procedure:
Rodent Pharmacokinetic Study
Three to five animals were housed in each cage. Animals were kept fasted over night and maintained on a 12 hours light/dark cycle. Three rats were dosed NCE orally (15 or 5 mg/kg) and intravenously (5 mg/kg) on day 0 and day 2
At each time point blood was collected by jugular vein. Plasma was stored frozen at −20° C. until analysis. The concentrations of the NCE compound in plasma were determined using LC-MS/MS method. Schedule time points: Pre dose 0.25, 0.5, 1, 1.5, 2, 3, 4, 6, 8, 10, 12 and 24 hours after dosing (n=3).
Pharmacokinetic parameters Cmax, Tmax, AUCt, T1/2 and Bioavailability were calculated by non-compartmental model using software WinNonlin version 5.0.1.

Where a name gives a salt, the structure may show the parent alone.

In the case of `CNCC1CC2CC2N1C(=O)c1cc2ccccc2o1` (stereo not drawn) [Example 32, Benzofuran-2-yl-(3-methylaminomethyl-2-azabicyclo[3.1.0]hex-2-yl)methanone tartrate], in data set [1], the inhibition constant (Ki) was found to be 38.3 nM.

Turning to `NCC1CC2CC2N1c1cnc2ccccc2c1` (stereo not drawn) [Example 29, N-(2-(quinolin-3-yl)-2-azabicyclo[3.1.0]hex-3-ylmethyl) amine fumarate], in data set [1], the Ki came to 135 nM.

For the compound `Cc1cncc(N2C(CN)CC3CC32)c1` (stereo not drawn) [Example 26, N-(2-(3-methylpyridin-5-yl)-2-azabicyclo[3.1.0]hex-3-ylmethyl) amine fumarate], the inhibition constant (Ki) in data set [1] came out at 5.7 nM.

As for `NCC1CC2CC2N1C(=O)c1cc2ccccc2[nH]1` (stereo not drawn) [Example 34, (3-Aminomethyl-2-azabicyclo[3.1.0]hex-2-yl)-(1H-indol-2-yl)-methanone], the Ki in data set [1] was found to be 55 nM.

For the compound `CNCC1CC2CC2N1c1cnc2ccccc2c1` (stereo not drawn) [Example 31, N-(2-(quinolin-3-yl)-2-azabicyclo[3.1.0]hex-3-ylmethyl) methylamine fumarate], the inhibitory constant (Ki) in data set [1] is 1650 nM.

`CNCC1CC2CC2N1c1cncc(Cl)c1.O=C(O)/C=C/C(=O)O` (stereo not drawn) [Example 12, N-[2-(5-Chloropyridin-3-yl)-2-azabicyclo[3.1.0]hex-3-ylmethyl]methylamine fumarate]: the Ki in data set [1] was determined as 77.3 nM. In data set [2] (1 mg/kg), the Inference result is given as “Active”; the “Exploration time mean ± S.E.M, Familiar object” value worked out at 4.651 ± 0.619 s; the “Exploration time mean ± S.E.M, Novel object” value is 16.70 ± 2.136 s.

In the case of `CNCC1CC2CC2N1C(=O)c1cc2cccc(Br)c2o1` (stereo not drawn) [Example 33, (7-Bromo benzofuran-2-yl)-(3-methylaminomethyl-2-azabicyclo[3.1.0]hex-2-yl) methanone tartrate], the Ki in data set [1] came to 3000 nM.

`CNCC1CC2CC2N1C(=O)c1ccco1` (single isomer, unassigned) [Example 3, Furan-2-yl-(3-methylaminomethyl-2-azabicyclo[3.1.0]hex-2-yl)methanone tartarate]: the inhibition constant (Ki) in data set [1] stood at 41.7 nM.

As to `NCC1CC2CC2N1C(=O)c1ccncc1` (stereo not drawn) [Example 39, (3-Aminomethyl-2-aza-bicyclo[3.1.0]hex-2-yl) pyridin-4-yl methanone tartarate], the inhibition constant Ki in data set [1] amounted to 109 nM.

`CNCC1CC2CC2N1c1nccnc1O` (stereo not drawn) [Example 20, N-[2-(3-Hydroxypyrazin-2-yl)-2-azabicyclo[3.1.0]hex-3-ylmethyl] methylamine]: in data set [1], the Ki stood at 13 nM.

Consider `NCC1CC2CC2N1c1ccc(C(F)(F)F)nc1` (stereo not drawn) [Example 24, N-(2-(2-trifluoromethylpyridin-5-yl)-2-azabicyclo[3.1.0]hex-3-ylmethyl) amine fumarate], for which the Ki in data set [1] stood at 681 nM.

Consider `NCC1CC2CC2N1c1cncnc1.O=C(O)/C=C/C(=O)O` (stereo not drawn) [Example 22, N-(2-(pyrimidin-5-yl)-2-azabicyclo[3.1.0]hex-3-ylmethyl) amine fumarate], for which the bioavailability in data set [3] came out at 89 ± 9%. Moreover, in data set [3] (Intravenous), the AUC(0-t) was found to be 2250 ± 228 ng·h/mL, the highest level (Cmax) was 1380 ± 156 ng/mL, the time to peak (Tmax) came out at 15 min and the half-life was 80.4 ± 4.2 min. For the same compound, in data set [3] (Per-Oral), the exposure AUC(0-t) worked out at 2020 ± 377 ng·h/mL, the Cmax came to 1100 ± 211 ng/mL, the Tmax was found to be 4.8 min and the half-life was 97.8 ± 6.6 min. In addition, in data set [1], the Ki was 58.1 nM.

Regarding `NCC1CC2CC2N1c1ccc(Cl)nc1` (stereo not drawn) [Example 25, N-(2-(2-chloropyridin-5-yl)-2-azabicyclo[3.1.0]hex-3-ylmethyl) amine fumarate], in data set [1], the inhibition constant (Ki) turned out to be 6.9 nM.

Regarding `CNCC1CC2CC2N1c1cncc(C)c1` (stereo not drawn) [Example 27, N-(2-(3-methylpyridin-5-yl)-2-azabicyclo[3.1.0]hex-3-ylmethyl)methyl amine bistartarate], in data set [1], the inhibitory constant (Ki) was 253 nM.

Take `CNCC1CC2CC2N1c1cncc(C(F)(F)F)c1` (stereo not drawn) [Example 30, N-(2-(3-trifluoromethylpyridin-5-yl)-2-azabicyclo[3.1.0]hex-3-ylmethyl) methylamine fumarate]: in data set [1], the Ki is 247 nM.

On to `NCC1CC2CC2N1C(=O)c1ccccn1` (stereo not drawn) [Example 37, (3-Aminomethyl-2-azabicyclo[3.1.0]hex-2-yl) pyridin-2-yl methanone tartrate], for which, in data set [1], the inhibition constant (Ki) turned out to be 11.6 nM.

Regarding `NCC1CC2CC2N1c1cncc(C(F)(F)F)c1` (stereo not drawn) [Example 28, N-(2-(3-trifluoromethylpyridin-5-yl)-2-azabicyclo[3.1.0]hex-3-ylmethyl) amine fumarate], in data set [1], the Ki is 140 nM.

`NCC1CC2CC2N1C(=O)c1ccco1.O=C(O)C(O)C(O)C(=O)O` (stereo not drawn) [Example 35, (3-Aminomethyl-2-aza bicyclo[3.1.0]hex-2-yl) furan-2-yl methanone tartrate] came in with a bioavailability in data set [3] of 92 ± 8%. Also, in data set [3] (Intravenous), the exposure AUC(0-t) was 1420 ± 71 ng·h/mL, the peak concentration (Cmax) is 1780 ± 56 ng/mL, the Tmax came to 4.8 min and the half-life is 67.8 ± 9 min. For the same compound, in data set [3] (Per-Oral), the exposure AUC(0-t) was found to be 1310 ± 146 ng·h/mL, the highest level (Cmax) was 998 ± 175 ng/mL, the Tmax was determined as 19.8 ± 8.4 min and the half-life is 89.4 ± 15.6 min. Besides, the Ki in data set [1] was 38.7 nM. Besides, in data set [2] (0.3 mg/kg), the Inference entry is recorded as “Active”; the “Exploration time mean ± S.E.M, Familiar object” value stood at 5.30 ± 1.05 s; the “Exploration time mean ± S.E.M, Novel object” value stood at 14.90 ± 7.74 s.

Take `NCC1CC2CC2N1C(=O)c1cccnc1` (stereo not drawn) [Example 38, (3-Aminomethyl-2-aza bicyclo[3.1.0]hex-2-yl) pyridin-3-yl methanone tartarate]: the Ki in data set [1] was 45 nM.

Regarding `CNCC1CC2CC2N1c1cncc(OC(C)C)c1` (stereo not drawn) [Example 15, N-[2-(5-Isopropoxypyridin-3-yl)-2-azabicyclo[3.1.0]hex-3-ylmethyl]methylamine], in data set [1], the Ki was 383 nM.

In the case of `NCC1CC2CC2N1c1cncc(Sc2ccccc2)c1` (stereo not drawn) [Example 16, [2-(5-Phenylsulfanylpyridin-3-yl)-2-azabicyclo[3.1.0]hex-3-yl]methylamine fumarate], in data set [1], the Ki amounted to 451 nM.

As to `NCC1CC2CC2N1C(=O)c1cncc(Br)c1` (stereo not drawn) [Example 36, (3-Aminomethyl-2-azabicyclo[3.1.0]hex-2-yl) (5-bromo pyridin-3-yl) methanone tartrate], the Ki in data set [1] was 17.8 nM.

Consider `CNCC1CC2CC2N1c1cncc(OC)c1` (stereo not drawn) [Example 14, N-[2-(5-Methoxypyridin-3-yl)-2-azabicyclo[3.1.0]hex-3-ylmethyl]methylamine fumarate], for which the inhibition constant (Ki) in data set [1] turned out to be 179 nM.

Consider `CCNCC1CC2CC2N1c1cncc(Br)c1` (stereo not drawn) [Example 5, N-[2-(5-Bromopyridin-3-yl)-2-azabicyclo[3.1.0]hex-3-ylmethyl]ethylamine tartarate], for which the inhibition constant (Ki) in data set [1] amounted to 700 nM.
